Laboratory results: PubChem BioAssay (NCI)
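Values below derive from 48-hour exposures of cells grown in 96-well plates, with endpoints linearly interpolated between the two concentrations bracketing the appropriate inhibition level. At the TGI there is no net growth.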

What follows are compounds tested on SW-620 colon (assay: NCI-60 cell line screen, 48 h).

| SMILES | TGI [µM] |
| --- | --- |
| CCc1nc(N)nc(N)c1-c1ccc2nn(-c3ccccc3)[n+]([O-])c2c1 | 18.3 |
| O=C(O)/C=N\Nc1nc2ccccc2[nH]1 | > 100 |
| CC(=O)OCCn1cnc2nc(Nc3ccccc3)nc(Cl)c21 | > 100 |
| Nc1nc(N)c2[nH]c(CNc3ccc(C(=O)O)cc3)nc2n1 | > 100 |
| CCC1(CC)SCc2nc3ccccc3n21 | > 100 |
| C[C@]12CC[C@H](O)CC1=CC[C@@H]1[C@@H]2CC[C@]2(C)C(=O)[C@@H](N3CCOCC3)C[C@@H]12 | > 100 |
| CNn1c(-c2ccccc2)n[nH]c1=O | > 100 |
| COc1ccc(CC2c3cc(Oc4cc(CC5c6cc(OC)c(OC)cc6CCN5C)ccc4O)c(OC)cc3CCN2C)cc1 (stereo not given) | 7.29 |
| COc1ccc(C(C)NNC(=O)c2ccncc2)c(OC)c1 (stereo not given) | > 100 |
| CC(C)(C)OC(=O)NCC(O)CNC(=O)OC(C)(C)C | > 100 |
| O=[N+]([O-])c1cc2oc(COc3ccccc3)nc2cc1Cl | > 100 |
| Cc1ccc(S(=O)(=O)N/N=C/C(=C/c2ccc(Cl)cc2)CC(/C=N/NS(=O)(=O)c2ccc(C)cc2)=C\c2ccc(Cl)cc2)cc1 | 27.6 |
| CC(C)(C)c1cc(C(P(=O)(c2ccccc2)c2ccccc2)P(=O)(c2ccccc2)c2ccccc2)cc(C(C)(C)C)c1O | > 9.23 |
| CC(C)(C)C(=O)OCC1CCC[N+]2(C)CCCCC12 (stereo not given) | > 100 |
| NS(=O)(=O)c1nn2c(Br)c(-c3ccccc3)nc2s1 | 12.4 |
| CCN(CC)c1c(N(CC)CC)c(=O)c1=O | 20.1 |
| CN(C)Cc1cc(C(=O)/C=C/c2ccc(Cl)cc2)cc(CN(C)C)c1O | 20.5 |
| O=[N+]([O-])c1ccc(Cl)c(C=NC23CC4CC(CC(C4)C2)C3)c1 | > 10 |

The compounds below were run on NCI-H460 lung (assay: NCI-60 cell line screen, 48 h).

| SMILES | TGI [µM] |
| --- | --- |
| CCc1nc(N)nc(N)c1-c1ccc2nn(-c3ccccc3)[n+]([O-])c2c1 | 14.8 |
| O=C(O)/C=N\Nc1nc2ccccc2[nH]1 | > 100 |
| CC(=O)OCCn1cnc2nc(Nc3ccccc3)nc(Cl)c21 | > 100 |
| Nc1nc(N)c2[nH]c(CNc3ccc(C(=O)O)cc3)nc2n1 | > 100 |
| CCC1(CC)SCc2nc3ccccc3n21 | > 100 |
| C[C@]12CC[C@H](O)CC1=CC[C@@H]1[C@@H]2CC[C@]2(C)C(=O)[C@@H](N3CCOCC3)C[C@@H]12 | > 100 |
| CNn1c(-c2ccccc2)n[nH]c1=O | > 100 |
| COc1ccc(CC2c3cc(Oc4cc(CC5c6cc(OC)c(OC)cc6CCN5C)ccc4O)c(OC)cc3CCN2C)cc1 (stereo not given) | 14.1 |
| COc1ccc(C(C)NNC(=O)c2ccncc2)c(OC)c1 (stereo not given) | > 100 |
| CC(C)(C)OC(=O)NCC(O)CNC(=O)OC(C)(C)C | > 100 |
| O=[N+]([O-])c1cc2oc(COc3ccccc3)nc2cc1Cl | 53.6 |
| Cc1ccc(S(=O)(=O)N/N=C/C(=C/c2ccc(Cl)cc2)CC(/C=N/NS(=O)(=O)c2ccc(C)cc2)=C\c2ccc(Cl)cc2)cc1 | 30.3 |
| CC(C)(C)c1cc(C(P(=O)(c2ccccc2)c2ccccc2)P(=O)(c2ccccc2)c2ccccc2)cc(C(C)(C)C)c1O | 4.44 |
| CC(C)(C)C(=O)OCC1CCC[N+]2(C)CCCCC12 (stereo not given) | > 100 |
| NS(=O)(=O)c1nn2c(Br)c(-c3ccccc3)nc2s1 | 19.3 |
| CCN(CC)c1c(N(CC)CC)c(=O)c1=O | > 78.2 |
| CN(C)Cc1cc(C(=O)/C=C/c2ccc(Cl)cc2)cc(CN(C)C)c1O | 21.8 |
| O=[N+]([O-])c1ccc(Cl)c(C=NC23CC4CC(CC(C4)C2)C3)c1 | > 10 |

Each compound was assayed on CCRF-CEM leukemia (assay: NCI-60 cell line screen, 48 h).

| SMILES | TGI [µM] |
| --- | --- |
| CCc1nc(N)nc(N)c1-c1ccc2nn(-c3ccccc3)[n+]([O-])c2c1 | 36.8 |
| O=C(O)/C=N\Nc1nc2ccccc2[nH]1 | > 100 |
| CC(=O)OCCn1cnc2nc(Nc3ccccc3)nc(Cl)c21 | > 100 |
| Nc1nc(N)c2[nH]c(CNc3ccc(C(=O)O)cc3)nc2n1 | > 100 |
| CCC1(CC)SCc2nc3ccccc3n21 | > 100 |
| C[C@]12CC[C@H](O)CC1=CC[C@@H]1[C@@H]2CC[C@]2(C)C(=O)[C@@H](N3CCOCC3)C[C@@H]12 | > 100 |
| CNn1c(-c2ccccc2)n[nH]c1=O | > 100 |
| COc1ccc(CC2c3cc(Oc4cc(CC5c6cc(OC)c(OC)cc6CCN5C)ccc4O)c(OC)cc3CCN2C)cc1 (stereo not given) | 1.57 |
| COc1ccc(C(C)NNC(=O)c2ccncc2)c(OC)c1 (stereo not given) | > 100 |
| CC(C)(C)OC(=O)NCC(O)CNC(=O)OC(C)(C)C | > 100 |
| O=[N+]([O-])c1cc2oc(COc3ccccc3)nc2cc1Cl | > 100 |
| Cc1ccc(S(=O)(=O)N/N=C/C(=C/c2ccc(Cl)cc2)CC(/C=N/NS(=O)(=O)c2ccc(C)cc2)=C\c2ccc(Cl)cc2)cc1 | 8.8 |
| CC(C)(C)c1cc(C(P(=O)(c2ccccc2)c2ccccc2)P(=O)(c2ccccc2)c2ccccc2)cc(C(C)(C)C)c1O | 7.88 |
| CC(C)(C)C(=O)OCC1CCC[N+]2(C)CCCCC12 (stereo not given) | > 100 |
| NS(=O)(=O)c1nn2c(Br)c(-c3ccccc3)nc2s1 | 11 |
| CCN(CC)c1c(N(CC)CC)c(=O)c1=O | 18.9 |
| CN(C)Cc1cc(C(=O)/C=C/c2ccc(Cl)cc2)cc(CN(C)C)c1O | 94.2 |
| O=[N+]([O-])c1ccc(Cl)c(C=NC23CC4CC(CC(C4)C2)C3)c1 | > 10 |

What follows are compounds tested on A498 renal (assay: NCI-60 cell line screen, 48 h).

| SMILES | TGI [µM] |
| --- | --- |
| CCc1nc(N)nc(N)c1-c1ccc2nn(-c3ccccc3)[n+]([O-])c2c1 | 29.2 |
| O=C(O)/C=N\Nc1nc2ccccc2[nH]1 | > 100 |
| CC(=O)OCCn1cnc2nc(Nc3ccccc3)nc(Cl)c21 | > 100 |
| Nc1nc(N)c2[nH]c(CNc3ccc(C(=O)O)cc3)nc2n1 | > 100 |
| CCC1(CC)SCc2nc3ccccc3n21 | > 100 |
| C[C@]12CC[C@H](O)CC1=CC[C@@H]1[C@@H]2CC[C@]2(C)C(=O)[C@@H](N3CCOCC3)C[C@@H]12 | > 100 |
| CNn1c(-c2ccccc2)n[nH]c1=O | > 100 |
| COc1ccc(CC2c3cc(Oc4cc(CC5c6cc(OC)c(OC)cc6CCN5C)ccc4O)c(OC)cc3CCN2C)cc1 (stereo not given) | 14.8 |
| COc1ccc(C(C)NNC(=O)c2ccncc2)c(OC)c1 (stereo not given) | > 100 |
| CC(C)(C)OC(=O)NCC(O)CNC(=O)OC(C)(C)C | > 100 |
| O=[N+]([O-])c1cc2oc(COc3ccccc3)nc2cc1Cl | 53 |
| Cc1ccc(S(=O)(=O)N/N=C/C(=C/c2ccc(Cl)cc2)CC(/C=N/NS(=O)(=O)c2ccc(C)cc2)=C\c2ccc(Cl)cc2)cc1 | 29 |
| CC(C)(C)c1cc(C(P(=O)(c2ccccc2)c2ccccc2)P(=O)(c2ccccc2)c2ccccc2)cc(C(C)(C)C)c1O | 5.08 |
| CC(C)(C)C(=O)OCC1CCC[N+]2(C)CCCCC12 (stereo not given) | > 100 |
| NS(=O)(=O)c1nn2c(Br)c(-c3ccccc3)nc2s1 | 31 |
| CCN(CC)c1c(N(CC)CC)c(=O)c1=O | 58.1 |
| CN(C)Cc1cc(C(=O)/C=C/c2ccc(Cl)cc2)cc(CN(C)C)c1O | 27.7 |
| O=[N+]([O-])c1ccc(Cl)c(C=NC23CC4CC(CC(C4)C2)C3)c1 | > 10 |

These compounds were tested on TK-10 renal (assay: NCI-60 cell line screen, 48 h).

| SMILES | TGI [µM] |
| --- | --- |
| CCc1nc(N)nc(N)c1-c1ccc2nn(-c3ccccc3)[n+]([O-])c2c1 | 55.6 |
| O=C(O)/C=N\Nc1nc2ccccc2[nH]1 | > 100 |
| CC(=O)OCCn1cnc2nc(Nc3ccccc3)nc(Cl)c21 | > 100 |
| Nc1nc(N)c2[nH]c(CNc3ccc(C(=O)O)cc3)nc2n1 | > 100 |
| CCC1(CC)SCc2nc3ccccc3n21 | > 100 |
| C[C@]12CC[C@H](O)CC1=CC[C@@H]1[C@@H]2CC[C@]2(C)C(=O)[C@@H](N3CCOCC3)C[C@@H]12 | > 100 |
| CNn1c(-c2ccccc2)n[nH]c1=O | > 100 |
| COc1ccc(CC2c3cc(Oc4cc(CC5c6cc(OC)c(OC)cc6CCN5C)ccc4O)c(OC)cc3CCN2C)cc1 (stereo not given) | 11 |
| COc1ccc(C(C)NNC(=O)c2ccncc2)c(OC)c1 (stereo not given) | > 100 |
| CC(C)(C)OC(=O)NCC(O)CNC(=O)OC(C)(C)C | > 100 |
| O=[N+]([O-])c1cc2oc(COc3ccccc3)nc2cc1Cl | > 100 |
| Cc1ccc(S(=O)(=O)N/N=C/C(=C/c2ccc(Cl)cc2)CC(/C=N/NS(=O)(=O)c2ccc(C)cc2)=C\c2ccc(Cl)cc2)cc1 | 45.6 |
| CC(C)(C)c1cc(C(P(=O)(c2ccccc2)c2ccccc2)P(=O)(c2ccccc2)c2ccccc2)cc(C(C)(C)C)c1O | 9.87 |
| CC(C)(C)C(=O)OCC1CCC[N+]2(C)CCCCC12 (stereo not given) | > 100 |
| NS(=O)(=O)c1nn2c(Br)c(-c3ccccc3)nc2s1 | 17.7 |
| CCN(CC)c1c(N(CC)CC)c(=O)c1=O | 8.7 |
| CN(C)Cc1cc(C(=O)/C=C/c2ccc(Cl)cc2)cc(CN(C)C)c1O | 39 |
| O=[N+]([O-])c1ccc(Cl)c(C=NC23CC4CC(CC(C4)C2)C3)c1 | > 10 |
